Experiments:
[1] = system: human non-small cell lung cancer cell line H841; assay: Cell growth of NSCLC cell lines; format: cell-based; details: cell growth rate from number of live cells
Experimental: Rat glioblastoma cell lines C6 (A) and human non-small cell lung cancer cell line H841 (B) were grown in the proper medium and treated with different concentration of drug candidate AG-1031 (P) and AG-1503 (#3). Cell growth rate was calculated based on the number of live cells as compared to concentration in M of selected small molecules of the invention (see FIGS. 6A and 6B).

[2] = system: hippocampal synaptic plasticity in the CA1 region; assay: In vivo electrophysiology, hippocampal CA1 LTP and DEP, Aβ1-42 AD rat model; set-up: species or system rats; details: last 20 min, vs Aβ1-42 group
Experimental: Aβ1-42 (Sigma-Aldrich, St. Louis, MO, USA;) was dissolved in double-distilled water at the concentration of 5 μg/μl, and incubated at 37° C. for one week before surgery. The rats were randomly divided into four groups as Sham (n=8), Sham+AG-1601 (n=8), Aβ1-42 (n=8) and Aβ1-42+AG-1601 (n=8). The Alzheimer's disease rat models were established by intracerebroventricular (i.c.v.) injection of Aβ1-42 aggregates. The animals were anesthetized with intraperitoneal injection of pentobarbital sodium (50 mg/kg) and placed in a stereotaxic apparatus (Narishige, Japan). The head skin of the rat was opened and two small holes were drilled on both sides of skull following the coordinates: 0.8 mm posterior to bregma, +1.4 mm lateral to sagittal suture, 4.0 mm beneath the surface of brain. Aβ1-42 (2.0 μl per side) was injected bilaterally into the lateral ventricles through micro-syringe. The needle was taken out after 5 minutes of the injection to ensure the aggregates were infused completely. Rats in the Sham group underwent the same operational process, but same volumes of double-distilled water were injected instead of Aβ1-42. After surgery, all rats were injected with penicillin (100,000 U) in the hindquarter muscle to prevent infection. The animals of Sham+AG-1601 and Aβ1-42+AG-1601 groups were intravenous injection with AG-1601 (1 mg/kg), while the same volume vehicle was implemented for the other groups every day for 14 days after one week of the postoperative recovery. The rats were placed in the stereotaxic apparatus after intraperitoneal injection of 30% urethane (0.4 g/kg Sigma-Aldrich, St. Louis, MO, USA). According to our former protocols (Gao et al., 2015) the appropriate incision on the scalp was cut to expose the skull and a small hole was drilled. […] The depth of both electrodes was optimized to acquire the proper amplitude of evoked potentials. […] A test stimulus was given every 30 s to record for 20 min as baseline. Then LTP was induced by TBS (30 trains of 12 pulses at 200 Hz) and recorded every 60s for 60 min. […]

[3] = system: dendritic spines of the CA1 pyramidal cells; assay: Golgi-Cox staining of dendritic spines, Aβ1-42 AD rat model; format: in vivo, rats; details: vs Aβ1-42 group
Experimental: Aβ1-42 (Sigma-Aldrich, St. Louis, MO, USA;) was dissolved in double-distilled water at the concentration of 5 μg/μl, and incubated at 37° C. for one week before surgery. The rats were randomly divided into four groups as Sham (n=8), Sham+AG-1601 (n=8), Aβ1-42 (n=8) and Aβ1-42+AG-1601 (n=8). The Alzheimer's disease rat models were established by intracerebroventricular (i.c.v.) injection of Aβ1-42 aggregates. The animals were anesthetized with intraperitoneal injection of pentobarbital sodium (50 mg/kg) and placed in a stereotaxic apparatus (Narishige, Japan). The head skin of the rat was opened and two small holes were drilled on both sides of skull following the coordinates: 0.8 mm posterior to bregma, +1.4 mm lateral to sagittal suture, 4.0 mm beneath the surface of brain. Aβ1-42 (2.0 μl per side) was injected bilaterally into the lateral ventricles through micro-syringe. The needle was taken out after 5 minutes of the injection to ensure the aggregates were infused completely. […]
Golgi-Cox staining method that performed according to the previously described protocol was used to determine the density of apical dendritic spines of the CA1 pyramidal cells in this study (Zhang et al., 2016). […] Six neurons in the CA1 region of hippocampus per animal were analyzed. The average dendritic spine density per 10 μm of dendritic length was calculated for each animal.

SF295 xenograft tumor = assay: SF295 GBM xenograft mice model; format: in vivo; details: 150 μg/mice IP every other day, 28 days
Experimental: Female SHO mice (Crl:SHO-Prkdescid Hr/6-8 weeks) were purchased from Charles River. Human glioblastoma cell line SF295 cells were injected subcutaneously on the right flank of 8 week female SHO mice (3×10^6/per mice), tumor appears around one week (day 7) post inoculation. When the tumor size reaches the volume of 100 mm^3, total 12 mice were randomly divided to two groups (Treatment & Vehicle). 100 μl of 1.5 μg/μl of AG-1601 (total 150 μg/mice) was injected via IP to each mouse in the Treatment Group every other day for total 28 days; the same volume of H2O was injected to the mouse in the Vehicle Group. Tumor size measurement was evaluated using the digital calipers and tumor size was calculated using the following formula [mm^3=((L+W)/4)×((L+W)/4)×((L+W)/4)×4/3×3.14159], data are platted as relative mean tumor volume+/−standard error of the mean.

Q: Which results are given for `C=CC1=C(C)c2cc3[nH]c(cc4nc(cc5[nH]c(cc1n2)c(C)c5C=C)C(C)=C4CCC(=O)O)c(CCC(=O)NCCCc1ccccc1)c3C` [AG-1601, 3-(2,8,13,18-tetramethyl-3-(3-oxo-3-((3-phenylpropyl)amino)propyl)-12,17-divinylporphyrin-7-yl)propanoic acid]?
A: inhibition of growth of NSCLC cell lines [1]: inhibiting growth of some NSCLC cell lines; fEPSP slopes of DEP [2]: reversed effectively; fEPSP slopes of LTP [2]: significantly recovered; fEPSP slopes of LTP ([2]; listed as AG-1061): augmented significantly; density of dendritic spines in the CA1 region [3]: marked reversal of the dendritic spine loss; efficacy on SF295 xenograft tumor (SF295 xenograft tumor): shows efficacy
